Source: article PMC3223389 (Frontiers in Pharmacology, 2011)

Target: T1, P2X2/3 receptors (Homo sapiens, UniProt P56373+Q9UBL9)
T1 sequence (Q9UBL9 1-471): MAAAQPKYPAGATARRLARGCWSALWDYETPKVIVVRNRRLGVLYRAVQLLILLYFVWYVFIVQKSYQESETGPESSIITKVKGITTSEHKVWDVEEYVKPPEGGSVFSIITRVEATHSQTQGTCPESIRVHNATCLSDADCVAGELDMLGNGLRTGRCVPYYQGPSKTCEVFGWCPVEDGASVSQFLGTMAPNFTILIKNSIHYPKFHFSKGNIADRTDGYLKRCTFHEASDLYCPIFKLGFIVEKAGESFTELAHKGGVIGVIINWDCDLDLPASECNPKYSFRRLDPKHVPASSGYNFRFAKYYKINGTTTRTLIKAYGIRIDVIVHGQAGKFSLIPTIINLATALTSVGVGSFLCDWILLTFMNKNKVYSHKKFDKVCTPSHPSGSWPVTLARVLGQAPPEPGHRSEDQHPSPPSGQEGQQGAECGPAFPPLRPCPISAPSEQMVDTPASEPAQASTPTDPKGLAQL
T1 sequence (P56373 1-397): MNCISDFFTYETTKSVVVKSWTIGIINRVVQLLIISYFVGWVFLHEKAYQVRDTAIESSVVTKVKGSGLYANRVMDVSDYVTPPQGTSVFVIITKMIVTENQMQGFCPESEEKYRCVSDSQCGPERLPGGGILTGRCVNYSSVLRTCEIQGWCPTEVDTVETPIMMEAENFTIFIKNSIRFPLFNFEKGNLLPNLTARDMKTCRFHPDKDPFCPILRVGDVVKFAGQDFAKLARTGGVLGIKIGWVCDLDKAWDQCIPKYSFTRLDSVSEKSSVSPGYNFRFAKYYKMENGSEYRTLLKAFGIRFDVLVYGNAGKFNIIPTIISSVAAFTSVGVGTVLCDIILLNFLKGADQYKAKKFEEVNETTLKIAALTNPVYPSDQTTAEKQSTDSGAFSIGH
Experiment: SyncroPatch 96 recording of P2X2/3 receptors in 1321N1 cells
Format: cell-based
Conditions: 10 μM, 1321N1 cell, three applications with intermittent wash steps

Nc1ncnc2c1ncn2[C@@H]1O[C@H](COP(=O)(O)OP(=O)(O)OP(=O)(O)O)[C@@H](O)[C@H]1O [ATP]
activation of P2X2/3 receptors: repeatedly activated
